Measured values from ChEMBL document CHEMBL1201862, “PubChem BioAssay data set” (2004).
Activity calls are given as the source filed them.

Assays:
[1] = Cytotoxicity screening for potential Inhibitors of Bacterial Capsule Biogenesis. [Related pubchem assays (depositor defined):AID488970]; type: functional
[2] = test system: HeLa; experiment: HeLa cell cytotoxicity, dose response, cytotoxicity control for MITF activator project, CellTiter-Glo luminescence, cherry-pick samples (AID 540259); type: functional, cell-based; conditions: Homo sapiens
[3] = molecular target: Wee1-like protein kinase (Homo sapiens, UniProt P30291); experiment: G2/M cell cycle arrest in HeLa, late-stage follow-up, mechanism study for Wee1 degradation inhibitor project, FACS, panel member Wee1 Degradation (AID 2088)
[4] = molecular target: G2/mitotic-specific cyclin-B1 (Homo sapiens, UniProt P14635); experiment: G2/M cell cycle arrest in HeLa, late-stage follow-up, mechanism study for Wee1 degradation inhibitor project, FACS, panel member Cyclin B Degradation (AID 2088)
[5] = molecular target: Trypsin (Sus scrofa, UniProt P00761); experiment: porcine trypsin inhibitors, dose response, selectivity assay for Rce1 protease inhibitor project, biochemical, quenched peptide fluorescence, cherry-pick (AID 488789)
[6] = molecular target: T1, Heat shock factor protein 1 (Mus musculus, UniProt P38532); experiment: inhibition of MG132-induced HSE-luciferase signal, confirmation, cell-based, NIH3T3, luminescence, dose retest (AID 2382); type: functional;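 further: NIH3T3 fibroblasts with HSF1-driven luciferase reporter stressed by proteasome inhibitor MG132; luminescence from HSF1-driven luciferase expression after 8 hours of MG132 stress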
T1 sequence (P38532 whole entry): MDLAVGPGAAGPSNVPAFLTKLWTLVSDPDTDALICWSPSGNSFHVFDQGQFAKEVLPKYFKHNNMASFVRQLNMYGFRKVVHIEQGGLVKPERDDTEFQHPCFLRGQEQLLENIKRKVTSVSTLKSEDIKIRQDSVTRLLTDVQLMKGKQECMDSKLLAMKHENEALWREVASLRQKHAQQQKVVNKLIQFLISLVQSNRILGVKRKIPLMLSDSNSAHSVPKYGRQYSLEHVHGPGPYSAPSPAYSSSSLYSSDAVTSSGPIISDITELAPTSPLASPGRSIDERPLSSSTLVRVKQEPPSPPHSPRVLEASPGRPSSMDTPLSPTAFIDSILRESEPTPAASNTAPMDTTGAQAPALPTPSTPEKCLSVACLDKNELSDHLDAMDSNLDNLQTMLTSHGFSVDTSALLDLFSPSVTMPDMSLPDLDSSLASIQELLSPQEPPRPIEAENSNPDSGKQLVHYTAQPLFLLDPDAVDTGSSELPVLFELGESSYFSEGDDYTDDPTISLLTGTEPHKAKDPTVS

[7] = molecular target: Scavenger receptor class B member 1 (Mus musculus, UniProt Q61009); experiment: inhibitors of SR-BI mediated HDL lipid uptake, dose response, ldlA[mSR-BI] cells, fluorescence, cherry pick (AID 493194); type: functional, cell-based;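 further: cellular uptake of fluorescent DiI-labeled HDL measured as cell fluorescence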
Chain of Scavenger receptor class B member 1 (Q61009 whole entry): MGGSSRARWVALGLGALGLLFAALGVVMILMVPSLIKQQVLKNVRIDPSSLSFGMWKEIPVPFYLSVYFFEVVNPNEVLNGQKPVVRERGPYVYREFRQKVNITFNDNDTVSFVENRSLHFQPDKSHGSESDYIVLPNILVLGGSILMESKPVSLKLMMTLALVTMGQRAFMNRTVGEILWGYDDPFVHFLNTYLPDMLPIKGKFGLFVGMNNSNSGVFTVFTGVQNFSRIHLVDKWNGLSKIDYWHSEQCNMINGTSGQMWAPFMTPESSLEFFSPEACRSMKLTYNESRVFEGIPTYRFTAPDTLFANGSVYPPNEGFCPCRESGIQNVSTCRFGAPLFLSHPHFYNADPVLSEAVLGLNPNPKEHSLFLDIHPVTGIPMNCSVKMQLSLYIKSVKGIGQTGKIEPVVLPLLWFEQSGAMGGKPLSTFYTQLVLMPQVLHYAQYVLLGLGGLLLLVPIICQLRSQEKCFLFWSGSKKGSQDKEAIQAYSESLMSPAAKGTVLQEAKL

Chain of G2/mitotic-specific cyclin-B1 (P14635 whole entry): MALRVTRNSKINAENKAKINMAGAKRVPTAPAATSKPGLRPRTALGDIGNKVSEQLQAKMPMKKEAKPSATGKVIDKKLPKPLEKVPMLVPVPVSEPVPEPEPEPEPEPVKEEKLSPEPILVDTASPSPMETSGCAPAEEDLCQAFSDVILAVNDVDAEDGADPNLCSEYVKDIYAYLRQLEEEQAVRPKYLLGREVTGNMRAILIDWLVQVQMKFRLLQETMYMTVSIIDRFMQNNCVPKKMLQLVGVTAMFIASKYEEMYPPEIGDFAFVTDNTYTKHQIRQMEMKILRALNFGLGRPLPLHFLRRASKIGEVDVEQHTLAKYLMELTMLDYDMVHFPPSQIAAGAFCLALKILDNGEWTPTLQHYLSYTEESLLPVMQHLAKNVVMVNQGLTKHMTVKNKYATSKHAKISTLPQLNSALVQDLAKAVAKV
Chain of Trypsin (P00761 whole entry): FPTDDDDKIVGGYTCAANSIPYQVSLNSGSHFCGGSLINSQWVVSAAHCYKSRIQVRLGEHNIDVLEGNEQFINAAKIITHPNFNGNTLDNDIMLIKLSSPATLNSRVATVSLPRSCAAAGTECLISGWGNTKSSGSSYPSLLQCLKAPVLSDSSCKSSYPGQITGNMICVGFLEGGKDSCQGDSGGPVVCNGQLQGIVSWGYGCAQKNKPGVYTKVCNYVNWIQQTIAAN
Chain of Wee1-like protein kinase (P30291 whole entry): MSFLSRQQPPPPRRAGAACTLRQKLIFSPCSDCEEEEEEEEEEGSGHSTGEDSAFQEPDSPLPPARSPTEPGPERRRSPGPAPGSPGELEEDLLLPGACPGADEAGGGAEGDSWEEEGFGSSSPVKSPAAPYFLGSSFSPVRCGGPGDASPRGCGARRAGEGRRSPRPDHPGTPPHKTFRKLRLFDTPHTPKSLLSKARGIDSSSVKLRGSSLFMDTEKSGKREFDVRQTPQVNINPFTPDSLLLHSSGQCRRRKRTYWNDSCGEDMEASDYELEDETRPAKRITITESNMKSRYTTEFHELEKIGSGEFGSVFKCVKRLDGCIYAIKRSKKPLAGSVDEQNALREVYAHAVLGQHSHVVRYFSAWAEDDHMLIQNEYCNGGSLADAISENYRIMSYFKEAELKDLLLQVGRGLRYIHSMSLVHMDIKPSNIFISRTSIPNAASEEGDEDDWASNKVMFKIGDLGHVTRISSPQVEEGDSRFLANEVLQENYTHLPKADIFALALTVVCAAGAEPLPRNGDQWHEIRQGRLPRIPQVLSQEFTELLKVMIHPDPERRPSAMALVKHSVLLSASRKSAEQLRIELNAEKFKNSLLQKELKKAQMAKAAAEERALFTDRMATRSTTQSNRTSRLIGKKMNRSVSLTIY

With `CCc1ccc(NC(=O)c2ccc3nc(N)sc3c2)cc1` the CC50 [1] was 54 µM (active) and the AC50 [2] was 47.4 µM (active).

With `Cc1cc(=O)[nH]c(-n2nc(C)cc2NC(=O)CCc2ccccc2)n1` the EC50 [3] was > 16.6 µM (active) and the EC50 [4] was > 49.7 µM (inactive).

For `Cc1ccc(O)c(CNc2cnc3ccccc3c2)c1`, the AC50 [5] was 12.8 µM (active).

For `CCOc1ccccc1/C=C/c1onc(C)c1S(=O)(=O)N1CCC(C(=O)NC(C)(C)C)CC1`, the EC50 [6] was > 195 µM (not active) and the AC50 [7] was 50 nM (active).
